What was measured:
Type in all cases: functional
JAR [1] = test: Increase in caspase3/7 production in human JAR cells at 50 uM relative to control
JAR [2] = test: Increase in caspase3/7 production in human JAR cells at 25 uM relative to control
JAR [3] = test: Increase in caspase3/7 production in human JAR cells at 10 uM relative to control

C[C@H](c1ccc(Cl)cc1)N1C(=O)c2cc(I)ccc2N(CCCCC(=O)O)C(=O)[C@@H]1c1ccc(Cl)cc1
Activity (JAR [1]): 1.97 | Activity (JAR [2]): 1.37 | Activity (JAR [3]): 0.97

COCCOCCN1C(=O)[C@H](c2ccc(Cl)cc2)N([C@H](C)c2ccc(Cl)cc2N)C(=O)c2cc(I)ccc21
Activity (JAR [1]): 2.92 | Activity (JAR [2]): 2.84 | Activity (JAR [3]): 1.29

C[C@H](c1ccc(Cl)cc1N)N1C(=O)c2cc(I)ccc2N(CCN2CCOCC2)C(=O)[C@@H]1c1ccc(Cl)cc1
Activity (JAR [1]): 2.89 | Activity (JAR [2]): 2.87 | Activity (JAR [3]): 0.9
